These results are taken from patent US11814371B2, “Heterocyclic compound” (MEDSHINE DISCOVERY INC., priority 2020, dated 2023).

The nature of data set [1]: Pharmacokinetic test in rat eyes after intragastric administration (eye tissue and plasma, LC-MS/MS). Type of data set: in vivo, male SD rats. Particulars: intragastric 75 mg/kg. The method, then: Male SD rats were used as test animals, and LC-MS/MS method was used to determine the drug concentrations in eye tissues at different times after intragastric administration of the test compound. The pharmacokinetic behavior of the compounds in the eyes of rats after intragastric administration was studied, and the pharmacokinetic characteristics were evaluated.
2.2 Test animals: Six healthy adult male rats were divided into three groups with 4 eyes in each group. Animals were purchased from Beijing Vital River Laboratory Animal Technology Co., Ltd.
2.3 Drug preparation: An appropriate amount of sample was weighed, and an appropriate amount of DMSO and labrasol were added in sequence according to the volume ratio of 10:90, then the mixture was stirred and sonicated to reach a clear state of 15 mg/mL for intragastric administration.
2.4 Administration: 6 male SD rats were divided into 3 groups, after fasting for one night, the intragastric administration group was administered with a volume of 5 mL/kg and a dose of 75 mg/kg.
Male rats were euthanized at 1, 4 and 8 hours after intragastric administration of compound 1, and eye tissues from 2 eyes of each rat were combined and the concentration of compound in the retina and choroid/sclera was measured.
The LC-MS/MS method was used to determine the content of the test compound in the eye tissues of rats after intragastric administration. The linear range of the method was from 2.00 to 6000 nmol/L; the eye tissue concentration data are presented in Table 3, in which each eye tissue concentration data was obtained from the combined left and right eyes of 2 rats.

Data set [2] deals with T1, recombinant human plasma kallikrein (Human PKal) (Homo sapiens, UniProt P03952).
T1 construct: Gly20-Ala638 derived from NS0- with a 60-His appendage at the C-terminus; His tag ('60-His' [sic]) (C); purchased R&D Systems 2497-SE; host or cells: mouse myeloma cell line NS0
T1 sequence (P03952 20-638): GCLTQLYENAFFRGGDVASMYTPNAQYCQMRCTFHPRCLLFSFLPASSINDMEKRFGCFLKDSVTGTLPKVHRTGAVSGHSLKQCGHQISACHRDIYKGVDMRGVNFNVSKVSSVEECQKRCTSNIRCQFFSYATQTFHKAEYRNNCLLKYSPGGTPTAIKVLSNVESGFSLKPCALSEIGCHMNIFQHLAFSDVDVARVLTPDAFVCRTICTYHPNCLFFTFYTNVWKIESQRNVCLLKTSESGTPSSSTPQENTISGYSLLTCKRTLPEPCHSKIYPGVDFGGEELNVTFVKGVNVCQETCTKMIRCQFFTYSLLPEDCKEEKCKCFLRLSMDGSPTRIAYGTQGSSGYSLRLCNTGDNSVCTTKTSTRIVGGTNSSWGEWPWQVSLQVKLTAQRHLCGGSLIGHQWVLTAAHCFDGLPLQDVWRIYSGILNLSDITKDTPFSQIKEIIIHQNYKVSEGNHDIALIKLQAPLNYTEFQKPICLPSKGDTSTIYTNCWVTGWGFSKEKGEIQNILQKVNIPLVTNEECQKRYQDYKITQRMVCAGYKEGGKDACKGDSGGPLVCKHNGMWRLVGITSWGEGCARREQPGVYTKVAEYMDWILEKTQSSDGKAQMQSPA
As to the kind of experiment: Inhibitory effect of test compounds on plasma kallikrein (PKal), fluorogenic substrate Z-FR-AMC. Particulars: 10 µM Z-FR-AMC, 10 min pre-incubation. Type of data set: biochemical. The protocol:
1. PKal reaction buffer: 25 mM Tris-HCl (trometamol-HCl), pH 8.0, 100 mM NaCl, […], 0.01 % Brij35 (polyoxyethylene lauryl ether), and 1 % DMSO (final concentration).
2. Enzyme: PKal (R&D Systems Cat# 2497-SE), recombinant human plasma kallikrein expressed in a mouse myeloma cell line, Gly20-Ala638 derived from NS0- with a 60-His appendage at the C-terminus, MW=70 kDa. Activation of the enzyme: (1) rhPKal was diluted to 200 µg/mL activation buffer (100 mM Tris, 10 mM CaCl2, 150 mM NaCl, pH 7.5 (TCN)); (2) thermolysin was diluted to 20 µg/mL activation buffer; (3) rhPKal (200 µg/mL) and thermolysin (20 µg/mL) were mixed in equal volumes; (4) the mixture was incubated at 37° C. for 30 min; (5) then the reactions was stopped with 50 µM EDTA (ethylenediaminetetraacetic acid).
3. Substrate (Enzo Cat# P-139): 10 µM Z-FR-AMC (AMC: 7-amino-4-methylcoumarin).
4. Detection: EnVision (PE), Ex/Em 355/460 nm.
5. Reaction process: (1) The specified enzymes and substrates were prepared in freshly prepared activation buffer; (2) the enzyme solution was injected into the reaction hole; (3) the DMSO solution of the test compound was injected into the reaction mixture, and controlled within the nanoliter range using acoustic technology (Echo 550, LabCyte Inc. Sunnyvale, CA); (4) after 10 min of pre-incubation, the substrate solution was injected into the reaction hole to start the reaction; (5) the activity of the enzyme could be indicated by the increase of the fluorescence signal of the fluorescent labeled peptide substrate, which was monitored every 5 min and lasted for 120 min at room temperature; (6) data analysis: the slope* (fluorescence signal/time) of the straight line was measured, then the slope could be calculated by excel and the curve could be fitted by Prism software.

The structures appear in SMILES notation.

Take `COc1ccc(F)c(CNC(=O)c2cn(Cc3ccc(Cn4cc(F)ccc4=O)cc3)nc2C2COC2)c1F` [Compound 1]: the “AUC0-8h Choroid and sclera” value in data set [1] worked out at 2803 nmol·h/kg. The entries for the “Concentration of compound in Choroid and sclera” value in data set [1] (1 hour), in data set [1] (4 hours) and in data set [1] (8 hours) were 640 nmol/kg, 450 nmol/kg and 82 nmol/kg, respectively. For the same molecule, the “Concentration of compound in Retina” value in data set [1] (1 hour) amounted to 90.8 nmol/kg; in data set [1] (4 hours), 147 nmol/kg. Also, the concentration at 1 h in data set [1] (male, SD, plasma, oral, 1 hour, read-out: Concentration of compound in Plasma) was 3.69 µM. For the same molecule, the concentration at 4 h in data set [1] (male, SD, plasma, oral, 4 hours, read-out: Concentration of compound in Plasma) is 6.44 µM. In addition, the concentration at 8 h in data set [1] (male, SD, plasma, oral, 8 hours, read-out: Concentration of compound in Plasma) amounted to 0.729 µM. In addition, in data set [1] (male, SD, plasma, po, read-out: AUC0-8h Plasma), the AUC(0-t) was determined as 22 µM·h. Besides, the 50% inhibitory concentration (IC50) in data set [2] was 0.139 nM.
Take `COc1ccc(F)c(CNC(=O)c2cn(Cc3ccc(Cn4cc(F)ccc4=O)c(F)c3)nc2C2COC2)c1F` [Compound 8]: the IC50 in data set [2] was 0.465 nM.

As usually defined, the IC50 is the concentration at which inhibition is half-maximal.
